# Measurements reported in patent US20160235724A1, “TETRAHYDROPYRIDOETHERS FOR THE TREATMENT OF STARGARDT'S DISEASE” (KATAIRO GMBH, priority 2013, published 2016).
# Values joined by “and” are separate entries in the source; they are usually repeats but may differ in a detail not shown here. Identical values can stand only once.
# Columns and labels:
# RPE cells = conditions: known from the literature; cited from earlier work
# Cynomolgus monkey = assay: 52-week oral administration in the Cynomolgus monkey, conventional histopathology of the eye; format: in vivo
# Description: Soraprazan was administrated in oral application of 6, 12 and 24 mg/kg/day for 52 weeks in the Cynomolgus monkey.
# Some monkeys from the control and the high-dose group were subjected to a recovery period of 3 months.
# [1] = tested on: lipofuscin in RPE cells of ABCA4−/− mice; assay: Fluorescence microscopy of autofluorescent lipofuscin granules in RPE semithin sections of ABCA4−/− mice; format: in vivo, mouse; conditions: 12-month-old ABCA4−/− mice, 4 weeks after single intravitreal injection of 0.32 mg, qualitative
# Description: (§1) Two μl PBS containing a total amount of 0.32 mg Soraprazan in suspension were injected into the vitreous of three 12 months old ABCA4^−/− mice.
# The eyes were enucleated after four weeks. Two untreated aged matched ABCA4^−/− mice served as controls. After enucleation, the eyes were cleaned of orbital tissue and, after removal of the cornea, were fixed overnight at 4° C. in 2% glutaraldehyde in 0.1 M cacodylate buffer (pH 7.4) containing 100 mM sucrose. After washing with cacodylate buffer, areas of interest in flat mount preparations were excised and post-fixed with 1% osmium tetroxide in 0.1 M cacodylate buffer at room temperature for 1 h. In some parts of the eyes osmication was omitted which preserved the autofluorescence of lipofuscin. Dehydration was then started by a series of incubations in 30, 50, and 70% ethanol. […] For light and fluorescence microscopy, staining with osmium and uranylacetate was omitted.
# Autofluorescent lipofuscin and melanolipofuscin granules were photographed in semi thin sections using a fluorescence microscope (Zeiss Axioplan2 imaging, excitation 370/36 nm, emission 575/15 nm, 40× objective) connected to a personal computer equipped with a CDD camera. Since the granules could not clearly be separated from each other and lipofuscin cannot be differentiated from melanolipofuscin, the quantification of lipofuscin granules was performed using electron microscopy.
# [2] = tested on: lipofuscin in RPE cells of ABCA4−/− mice; assay: Quantification and ultrastructural (TEM) analysis of lipofuscin in RPE after single intravitreal injection in ABCA4−/− mice (Stargardt's disease model); format: in vivo, mouse; conditions: single intravitreal injection 0.32 mg
# Description: Pigmented ABCA4^−/− mice (129S4/SvJae-ABCA4^tm1Ght) were provided by Gabriel Travis (David Geffen School of Medicine, University of California, Los Angeles, Calif.) and bred in the Biomedical Sciences division, University of Oxford. All experiments were conducted in female mice. The animals were kept in a 12 hour light (<100 lux)/dark cycle, with food and water available ad libitum. All animal breeding and experimental procedures were performed under approval of local and national ethical and legal authorities, and were conducted in compliance with the ARVO statement for the Use of Animals in Ophthalmic and Vision Research.
# as §1
# The eyes were enucleated after four weeks. Two untreated aged matched ABCA4^−/− mice served as controls. After enucleation, the eyes were cleaned of orbital tissue and, after removal of the cornea, were fixed overnight at 4° C. in 2% glutaraldehyde in 0.1 M cacodylate buffer (pH 7.4) containing 100 mM sucrose. After washing with cacodylate buffer, areas of interest in flat mount preparations were excised and post-fixed with 1% osmium tetroxide in 0.1 M cacodylate buffer at room temperature for 1 h. In some parts of the eyes osmication was omitted which preserved the autofluorescence of lipofuscin. Dehydration was then started by a series of incubations in 30, 50, and 70% ethanol. The samples were stained with saturated uranyl acetate. Dehydration was continued by incubations in 70, 80, 95, 100% ethanol and propylene oxide. The samples were then embedded in Epon (SPI-Pon™812 Epoxy Embedding Kit, SPI supplies, West Chester, Pa.). For light and fluorescence microscopy, staining with osmium and uranylacetate was omitted.
# Ultrathin Epon sections (70 nm) from WT control eyes and ABCA4^−/− eyes were post-stained with lead citrate and investigated under a transmission electron microscope (TEM; Model 902 A, Carl Zeiss, Oberkochen, Germany). For statistical analysis, the areas occupied by lipofuscin granules were quantified in 8-10 micrographs from each group. […] For lipofuscin quantification, image analysis software (iTEM, Olympus Soft imaging Solutions, Munster, Germany) was used. For each image, the total area of RPE cytoplasm was determined. […] The area fraction of lipofuscin/melanolipofuscin is expressed as area in μm^2 occupied by lipofuscin per 100 μm^2 RPE cytoplasm.
# Statistical significance for the ultrastructural evaluation of lipofuscin granules was determined by using Dunnett's test and the JMP9 statistical program (SAS; Heidelberg, Germany). […]
structure (smiles),measurement,setting,value
"CO[C@H]1c2ccn3c(C)c(C)nc3c2N[C@H](c2ccccc2)[C@H]1O [Example 2A, (7S,8R,9R)-2,3-Dimethyl-8-hydroxy-7-methoxy-9-phenyl-7,8,9,10-tetrahydro-imidazo [1,2-h][1,7]naphthyridine]",melting point,,108 to 110 °C
"CO[C@H]1c2ccn3c(C)c(C)nc3c2N[C@@H](c2ccccc2)[C@@H]1O [Example 1B, (7S,8S,9S)-2,3-Dimethyl-8-hydroxy-7-methoxy-9-phenyl-7,8,9,10-tetrahydro-imidazo [1,2-h][1,7] naphthyridine]",melting point,,161 to 162 °C
"CO[C@@H]1[C@@H](c2ccccc2)Nc2c(ccn3c(C)c(C)nc23)[C@H]1OC [Example 8, (7R,8R,9R)-2,3-Dimethyl-7,8-dimethoxy-9-phenyl-7,8,9,10-tetrahydro-imidazo[1,2-h][1,7]naphthyridine]",melting point,,155 to 156 °C
"Cc1nc2c3c(ccn2c1C)[C@H](OC(C)C)[C@H](O)[C@@H](c1ccccc1)N3 [Example 7, (7S,8R,9R)-2,3-Dimethyl-8-hydroxy-9-phenyl-7-(2-propoxy)-7,8,9,10-tetrahydro-imidazo [1,2-h][1,7]naphthyridine]",melting point,,168 to 169 °C
"CCO[C@@H]1c2ccn3c(C)c(C)nc3c2N[C@H](c2ccccc2)[C@H]1O [Example 3, (7R,8R,9R)-2,3-Dimethyl-7-ethoxy-8-hydroxy-9-phenyl-7,8,9,10-tetrahydro-imidazo [1,2-h][1,7]naphthyridine]",melting point,,188 to 190 °C
"CCO[C@H]1c2ccn3c(C)c(C)nc3c2N[C@H](c2ccccc2)[C@H]1O [Example 4, (7S,8R,9R)-2,3-Dimethyl-7-ethoxy-8-hydroxy-9-phenyl-7,8,9,10-tetrahydro-imidazo [1,2-h][1,7]naphthyridine]",melting point,,135 to 137 °C
"CO[C@@H]1c2ccn3c(C)c(C)nc3c2N[C@@H](c2ccccc2)[C@@H]1O [Example 2B, (7R,8S,9S)-2,3-Dimethyl-8-hydroxy-7-methoxy-9-phenyl-7,8,9,10-tetrahydro-imidazo[1,2-h][1,7]naphthyridine]",melting point,,171 to 172 °C
"COCCO[C@@H]1c2ccn3c(C)c(C)nc3c2N[C@H](c2ccccc2)[C@H]1O [Soraprazan, (7R,8R,9R)-2,3-Dimethyl-8-hydroxy-7-(2-methoxyethoxy)-9-phenyl-7,8,9,10-tetrahydro-imidazo [1,2-h][1,7]naphthyridine]","removal of ""natural"" lipofuscin from RPE cells",RPE cells,remove such lipofuscin from RPE cells
same,conventional histopathology findings,Cynomolgus monkey; oral 6 mg/kg/day for 52 weeks,no alterations
same,conventional histopathology findings,Cynomolgus monkey; oral 12 mg/kg/day for 52 weeks,no alterations
same,monkeys showing migration of individual macrophages beneath the RPE and/or into the subretinal space,Cynomolgus monkey; oral 24 mg/kg/day for 52 weeks,Three out of 12
same,photoreceptors facing the depigmented RPE,Cynomolgus monkey; oral 24 mg/kg/day for 52 weeks,stayed healthy
same,monkeys with depigmentation of RPE cells,"Cynomolgus monkey; oral 24 mg/kg/day for 52 weeks, among the 3 monkeys with macrophage migration",Two of these 3
same,lipofuscin in RPE under fluorescent light compared to untreated mice,[1],lipofuscin was reduced
same,percent area occupied by lipofuscin in RPE cell cytoplasm (median),"[2]; 12-month-old ABCA4−/− mice, eyes enucleated after four weeks, untreated median 12.92%, p<0.0001, Dunnett's test",6.42%
same,electron-opaque lipofuscin granules in RPE (TEM) compared to controls,"[2]; 12-month-old ABCA4−/− mice, four weeks",significantly reduced in number
same,appearance of retinas of treated animals,[2]; ABCA4−/− mice,removing lipofuscin. Retinas of treated animals made a healthy
same,lipofuscin content of RPE cells after treatment (study overview result),"[2]; ABCA4−/− mice, 44 retinal areas, p < 0.0001",significantly reduced and 1. Lipofuscin is removed from ABCA4^−/− mouse RPE cells after
